Legend:
[1] = tested on: CD11b+ peripheral blood monocytes; assay: Ex vivo uptake assay of Aβ1-42; assay type: cell-based, C57BL/6 mice; details: Example 14; AS01B mouse full dose (5 ug per mouse) or CRX601 2 μg, i.m.
Description: Preparation of cells: Peripheral blood was drawn from C57BL/6 mice via cardiac puncture with lithium-heparin as anticoagulant, 24-hours after injection of the adjuvants used herein. Red blood cell lysis was performed twice on pooled blood with Ammonium Chloride-based Buffer (Sigma, Steinheim, Germany) and cells were counted with the EasyCount™ System (Immunicon). […]
FACS analysis: cells were harvested after incubation with fluorescent Aβ peptide with Trypsin/EDTA and cold PBS and washed three times. 500,000 cells were incubated in 96-well plate for 10 min. on ice in the presence of Rat anti-Mouse CD16/CD32 (clone 2.4G2—BD Fc Block™) and further stained for 30 min. with a combination of the following directly conjugated antibodies at their pre-determined optimal concentration: PE-Hamster anti-Mouse CD3 (clone 145-2C11), Rat anti-Mouse CD45R/B220 (clone RA3-6B2), Rat anti-Mouse Ly-6G (clone 1A8), Mouse anti-Mouse NK1.1 (clone PK136), APC-conjugated Rat anti-Mouse CD11b (clone M1/70), PE-Cy7-conjugated Hamster anti-Mouse CD11c (clone HL3), (all from BD PharMingen). […]
Samples were acquired on a flow cytometer (BD FACSCanto II) and data analyzed with the FACSDiva software (BD Biosciences). […]

[2] = tested on: Lineage-CD11b+ monocytes in peripheral blood; assay: Monocyte analysis and counting after adjuvant injection in mice; assay type: in vivo, C57BL/6 mice; details: Example 12, single i.m. injection
Description: (§1) 24-Hours after injection of the TLR adjuvants, peripheral blood was drawn from C57BL/6 mice via cardiac puncture with lithium-heparin as anticoagulant. Red blood cell lysis was performed twice on pooled blood with Ammonium Chloride-based Buffer (Sigma, Steinheim, Germany) and cells were counted with the EasyCount™ System (Immunicon). […] Cells were finally washed three times and fixed for 15 min. with a 2% paraformaldehyde solution in PBS. Fluorescence minus one (FMO) controls were always included in the assays for fluorescent compensation setting. Samples were acquired on a flow cytometer (BD FACSCanto II) and data analyzed with the FACSDiva software (BD Biosciences). Monocytes were identified by their Side/Forward scatter properties and gated as CD3-/CD45R/B220-/Ly-6G-/NK1.1-(Lineage-)/CD11b+ cells. CD11b+ monocyte frequency was reported as a percentage of the total cells excluding debris.
as §1, with “24 hours” for “24-Hours”, “each immunomodulator,” for “the TLR adjuvants,”, “min” for “min.”, “monocytes” for “monocyte”
Cells were finally washed twice and fixed for 15 min. with a 2% paraformaldehyde solution in PBS. FMOs controls were always included in the assays. Samples were acquired on a flow cytometer (BD FACSCanto II) and data analyzed with the FACSDiva software (BD Biosciences). Monocytes were identified and counted by their Side/Forward scatter properties, excluding debris and gated as CD3-/CD45R/B220-/Ly-6G-/NK1.1-(Lineage-)/CD11 b+ cells.

CCCCCCCCCCC[C@H](CC(=O)N[C@H]1[C@H](OC[C@H](NC(=O)C[C@@H](CCCCCCCCCCC)OCCCCCCCCCC)C(=O)O)O[C@H](CO)[C@@H](OP(=O)(O)O)[C@@H]1OC(=O)C[C@@H](CCCCCCCCCCC)OCCCCCCCCCC)OCCCCCCCCCC [CRX601]
ex vivo uptake of Aβ42 by monocytes compared to PBS group [1]: higher amount of Aβ42
monocyte effect at 20 μg dose [2]: down modulated
dose of maximum monocyte response ([2]; 0.2 to 20 ug/mouse): 10 µg
dose enough to trigger an increase of the monocyte count ([2]; 24 hrs, compared to PBS): 1 µg
